Assay results reported in patent US4728650A, “3,4-dihydrobenzopyran derivatives and medicinal uses thereof” (Kuraray Co., Ltd., priority 1985, dated 1988).

Legend:
[1] = Hydrochloric acid-ethanol-induced ulcer in rats; assay type: in vivo, Wistar rats (male)
Protocol: Male Wistar rats (body weights, 170-210 g) were used in groups of 6 to 8 animals. Indomethacin, 20 mg/kg body weight, was injected subcutaneously to rats which had been deprived of food for 24 hours. After 7 hours, the stomach was excised under ether anesthesia. A 10% aqueous solution of formaldehyde was infused into the stomach until the stomach was inflated and, then, the stomach was immersed in a 10% aqueous solution of formaldehyde for 10 minutes for fixation of the tissue. After fixation, an incision was made along the greater curvature and the length of ulcers occurring in the glandular portion of the stomach was measured. The total length of ulcers occurring in a rat was taken as an ulcer index. Each test compound was orally administered, as suspended in a gum arabic solution in concentration of 5%, to rats 10 minutes before subcutaneous injection of indomethacin. Male Wistar rats (body weights, 160-190 g) were used in groups of 6 to 8 animals. One milliliter of a 60% aqueous solution of ethanol containing 150 mM hydrochloric acid was administered orally to rats which had been deprived of food for 24 hours. After one hour, the stomach was excised under ether anesthesia. In a manner similar to that described in study for indomethacin-induced ulcer, the ulcer index was determined. Each test compound was orally administered, as suspended in a gum arabic solution in concentration of 5%, to rats 1 hour before administration of hydrochloric acid-ethanol.

[2] = Expectorant action: tracheal secretion of fluorescein sodium in rats; assay type: in vivo, Wistar rats (male); details: 50 mg/kg oral
Protocol: Male Wistar rats (body weights, 280-320 g) were used in groups of 7 animals. Each test compound was orally administered in dose of 50 mg/kg body weight to rats. Immediately after administration, 0.3 ml/100 g (body weight of rat) of a 1% aqueous solution of fluorescein sodium was injected into the caudal vein. One hour after administration of the test compound, pentobarbital sodium 100 mg/kg (body weight of rat) was injected intraperitoneally so that deep anesthesia might cause the rat to die. Then, the trachea was exposed and an incision was made in the trachea. A sonde was inserted thereinto and ligation was made. To the sonde was connected a syringe containing 10 ml of a 5% solution of sodium hydrogen carbonate kept at 37° C. and 4 ml of the solution of sodium hydrogen carbonate was injected into the lung. After 5 minutes, the fluid in the lung was removed. After this procedure of injection and removal was repeated three times, the fluid removed from the lung was filtered and the filtrate was made up with water to make 20 ml. The intensity of fluroescence was determined at the excitation wave length of 491 nm and the fluorescence wave length of 510 nm using a spectrophotometer (HITACHI model 650-10, Hitachi, Ltd.). The amount of fluorescein sodium secreted into the trachea was estimated from the intensity of fluorescence. Each test compound was administered as suspended in a gum arabic solution in concentration of 5%.

[3] = Rattus norvegicus, po, 1 h, Table 8, 50 mg/kg p.o.
[4] = Table 8, 50 mg/kg p.o., control 9.69 ± 1.68
[5] = Rattus norvegicus, po, 1 h, Table 7, 12.5 mg/kg p.o.
[6] = Rattus norvegicus, po, 1 h, Table 7, 25 mg/kg p.o.
[7] = Table 6, 25 mg/kg p.o., control 9.69 ± 1.68
[8] = Table 5, 25 mg/kg p.o., control 11.09 ± 1.49
[9] = Rattus norvegicus, po, 1 h, Table 7, 50 mg/kg p.o.
[10] = Table 5, 50 mg/kg p.o., control 11.09 ± 1.49
[11] = Rattus norvegicus, po, 1 h, Table 12, 25 mg/kg p.o.
[12] = Rattus norvegicus, po, 1 h, Table 12, 50 mg/kg p.o.
[13] = Rattus norvegicus, po, 1 h, Table 12, 100 mg/kg p.o.
[14] = Table 12, 25 mg/kg p.o., control 9.93 ± 0.91
[15] = Table 12, 50 mg/kg p.o., control 9.93 ± 0.91
[16] = Table 12, 100 mg/kg p.o., control 9.93 ± 0.91

COc1c(C)c(C)c2c(c1C)CCC(C)(CCN1CCN(CC=C(C)C)CC1)O2 (stereo not drawn) [Compound (13), 3,4-Dihydro-6-methoxy-2-[2-[4-(3-methyl-2-butenyl)piperazin-1-yl]ethyl]-2,5,7,8-tetramethyl-2H-benzopyran]
inhibition in vivo at 50 mg/kg [1, 3]: 100% | Ulcer index (mean ± S.E.) [1, 4]: 0.00 ± 0.00 mm

COc1ccc2c(c1)OC(C)(CC(=O)NC(=N)N)CC2 (stereo not drawn) [Compound (7), N-(3,4-Dihydro-7-methoxy-2-methyl-2H-benzopyran-2-yl)acetylguanidine]
inhibition in vivo at 12.5 mg/kg [1, 5]: 71.9% | inhibition in vivo at 25 mg/kg [1, 6]: 84.2% | Ulcer index (mean ± S.E.) ([1]; Table 5, 12.5 mg/kg p.o., control 11.09 ± 1.49): 3.12 ± 0.66 mm | Ulcer index (mean ± S.E.) [1, 7]: 1.53 ± 0.66 mm

COc1c(C)c(C)c2c(c1C)CCC(C)(CCN1CCN(CCO)CC1)O2 (stereo not drawn) [Compound (35), 1-[2-(3,4-Dihydro-6-methoxy-2,5,7,8-tetramethyl-2H-benzopyran-2-yl)ethyl]-4-(2-hydroxyethyl)piperazine]
Secretory amount (mean ± S.E.) ([2]; Table 16, control 6.455 ± 0.766): 10.297 ± 1.841 μg/100 g (body weight of rat)/

COc1c(C)c(C)c2c(c1C)CCC(C)(C(=O)NC(=N)N)O2 (stereo not drawn) [Compound (4), N-(3,4-Dihydro-6-methoxy-2,5,7,8-tetramethyl-2H-benzopyran-2-yl)carbonylguanidine]
inhibition in vivo at 25 mg/kg [1, 6]: 100% | Ulcer index (mean ± S.E.) [1, 7]: 0.00 ± 0.00 mm

COc1ccc(C(=O)N2CCN(CCCC3(C)CCc4c(C)c(OC)c(C)c(C)c4O3)CC2)cc1 (stereo not drawn) [Compound (27), 1-[3-(3,4-Dihydro-6-methoxy-2,5,7,8-tetramethyl-2H-benzopyran-2-yl)propyl]-4-(4-methoxybenzoyl)piperazine]
Secretory amount (mean ± S.E.) ([2]; Table 15, control 5.20 ± 0.78): 6.45 ± 0.72 μg/100 g (body weight of rat)/

COc1c(C)c(C)c2c(c1C)CCC(C)(CCC(=O)NC(=N)N)O2 (stereo not drawn) [Compound (5)]
inhibition in vivo at 25 mg/kg [1, 6]: 100% | Ulcer index (mean ± S.E.) [1, 8]: 0.00 ± 0.00 mm

COc1ccc2c(c1)OC(C)(CCN1CCN(C(=O)c3cc(OC)c(OC)c(OC)c3)CC1)CC2 (stereo not drawn) [Compound (25), 1-[2-(3,4-Dihydro-7-methoxy-2-methyl-2H-benzopyran-2-yl)ethyl]-4-(3,4,5-trimethoxybenzoyl)piperazine]
Secretory amount (mean ± S.E.) ([2]; Table 14, control 1.60 ± 0.18): 3.08 ± 0.19 μg/100 g (body weight of rat)/

COc1c(C)c(C)c2c(c1C)CCC(C)(CCN1CCN(C(=O)c3ccc(Br)cc3)CC1)O2 (stereo not drawn) [Compound (22), 1-[2-(3,4-Dihydro-6-methoxy-2,5,7,8-tetramethyl-2H-benzopyran-2-yl)ethyl]-4-(4-bromobenzoyl)piperazine]
Secretory amount (mean ± S.E.) ([2]; Table 15, control 5.20 ± 0.78): 6.26 ± 0.32 μg/100 g (body weight of rat)/

COc1cc(CN2CCN(CCC3(C)CCc4c(C)c(OC)c(C)c(C)c4O3)CC2)cc(OC)c1OC (stereo not drawn) [Compound (18), 3,4-Dihydro-6-methoxy-2-[2-[4-(3,4,5-trimethoxybenzyl)piperazin-1-yl]ethyl]-2,5,7,8-tetramethyl-2H-benzopyran]
inhibition in vivo at 50 mg/kg ([1]; Rattus norvegicus, po, 1 h, Table 10, 50 mg/kg p.o.): 83.2% | Ulcer index (mean ± S.E.) ([1]; Table 10, 50 mg/kg p.o., control 5.98 ± 1.96): 0.98 ± 0.98 mm

CC(C)=CCOc1c(C)c(C)c2c(c1C)CCC(C)(CC(=O)NC(=N)N)O2 (stereo not drawn) [Compound (3), N-(3,4-Dihydro-6-prenyloxy-2,5,7,8-tetramethyl-2H-benzopyran-2-yl)acetylguanidine]
inhibition in vivo at 25 mg/kg [1, 6]: 98.7% | Ulcer index (mean ± S.E.) [1, 8]: 0.14 ± 0.14 mm

COc1c(C)c(C)c2c(c1C)CCC(C)(CCNC(=N)N)O2 (stereo not drawn) [Compound (10), N-[2-(3,4-Dihydro-6-methoxy-2,5,7,8-tetramethyl-2H-benzopyran-2-yl)ethyl]guanidine]
inhibition in vivo at 50 mg/kg [1, 9]: 72.6% | Ulcer index (mean ± S.E.) [1, 10]: 3.04 ± 1.33 mm

COc1c(C)c(C)c2c(c1C)CCC(C)(CCN1CCNCC1)O2 (stereo not drawn) [Compound (12), 3,4-Dihydro-6-methoxy-2-[2-(piperazin-1-yl)ethyl]-2,5,7,8-tetramethyl-2H-benzopyran]
inhibition in vivo at 25 mg/kg ([1]; Rattus norvegicus, po, 1 h, Table 8, 25 mg/kg p.o.): 98.7% | inhibition in vivo at 50 mg/kg [1, 3]: 100% | Ulcer index (mean ± S.E.) ([1]; Table 8, 25 mg/kg p.o., control 9.69 ± 1.68): 0.13 ± 0.13 mm | Ulcer index (mean ± S.E.) [1, 4]: 0.00 ± 0.00 mm

CC1(CC(=O)NC(=N)N)CCc2cc(Cl)ccc2O1 (stereo not drawn) [Compound (8), N-(3,4-Dihydro-6-chloro-2-methyl-2H-benzopyran-2-yl)acetylguanidine]
inhibition in vivo at 25 mg/kg [1, 6]: 100% | Ulcer index (mean ± S.E.) [1, 7]: 0.00 ± 0.00 mm

CNC(=S)NCCC1(C)CCc2c(C)c(OC)c(C)c(C)c2O1 (stereo not drawn) [Compound (9), N-[2-(3,4-Dihydro-6-methoxy-2,5,7,8-tetramethyl-2H-benzopyran-2-yl)ethyl]-N'-methylthiourea]
inhibition in vivo at 25 mg/kg [1, 6]: 47.3% | inhibition in vivo at 50 mg/kg [1, 9]: 95.4% | Ulcer index (mean ± S.E.) [1, 8]: 5.84 ± 0.75 mm

COc1c(C)c(C)c2c(c1C)CCC(C)(CCN1CCN(CC=C(C)CCC=C(C)CCC=C(C)C)CC1)O2 (stereo not drawn) [Compound (15), 3,4-Dihydro-6-methoxy-2-[2-[4-(3,7,11-trimethyl-2,6,10-dodecatrienyl)piperazin-1-yl]ethyl]-2,5,7,8-tetramethyl-2H-benzopyran]
inhibition in vivo at 50 mg/kg [1, 3]: 100% | Ulcer index (mean ± S.E.) [1, 4]: 0.00 ± 0.00 mm

COc1ccc2c(c1)CCC(C)(CC(=O)NC(=N)N)O2 (stereo not drawn) [Compound (6), N-(3,4-Dihydro-6-methoxy-2-methyl-2H-benzopyran-2-yl)acetylguanidine]
inhibition in vivo at 25 mg/kg [1, 6]: 79.1% | Ulcer index (mean ± S.E.) [1, 7]: 2.03 ± 1.04 mm

CNC(=N)NCCC1(C)CCc2c(C)c(OC)c(C)c(C)c2O1 (stereo not drawn) [Compound (11), N-[2-(3,4-Dihydro-6-methoxy-2,5,7,8-tetramethyl-2H-benzopyran-2-yl)ethyl]-N'-methylguanidine]
inhibition in vivo at 50 mg/kg [1, 9]: 98.2% | Ulcer index (mean ± S.E.) [1, 10]: 0.20 ± 0.14 mm

COc1c(C)c(C)c2c(c1C)CCC(C)(CCN1CCN(CC=C(C)CCC=C(C)C)CC1)O2 (stereo not drawn) [Compound (14), 3,4-Dihydro-6-methoxy-2-[2-[4-(3,7-dimethyl-2,6-octadienyl)piperazin-1-yl]ethyl]-2,5,7,8-tetramethyl-2H-benzopyran]
inhibition in vivo at 50 mg/kg [1, 3]: 100% | Ulcer index (mean ± S.E.) [1, 4]: 0.00 ± 0.00 mm

CCOc1c(C)c(C)c2c(c1C)CCC(C)(CC(=O)NC(=N)N)O2 (stereo not drawn) [Compound (2), N-(3,4-Dihydro-6-ethoxy-2,5,7,8-tetramethyl-2H-benzopyran-2-yl)acetylguanidine]
inhibition in vivo at 25 mg/kg [1, 6]: 89% | Ulcer index (mean ± S.E.) [1, 8]: 0.50 ± 0.34 mm

CC(=O)CCC=C(C)CC/C=C(\C)CC/C=C(\C)CCC=C(C)C [Teprenone, reference compound]
inhibition in vivo at 25 mg/kg [1, 11]: 78.4% | inhibition in vivo at 12.5 mg/kg [1, 5]: 33.8% | inhibition in vivo at 25 mg/kg [1, 6]: 78.4% | inhibition in vivo at 50 mg/kg [1, 12]: 91.4% | inhibition in vivo at 100 mg/kg [1, 13]: 96.3% | Ulcer index (mean ± S.E.) [1, 14]: 2.15 ± 1.26 mm | Ulcer index (mean ± S.E.) [1, 15]: 0.85 ± 0.61 mm | Ulcer index (mean ± S.E.) [1, 16]: 0.37 ± 0.37 mm

CC(C)=CCOc1ccc(/C=C/C(=O)c2ccc(OCC=C(C)C)cc2OCC(=O)O)cc1 [Sofalcone, 2'-carboxymethoxy-4,4'-bis(3-methyl-2-butenyloxy)calcon, reference compound]
inhibition in vivo at 25 mg/kg [1, 11]: 25.8% | inhibition in vivo at 25 mg/kg [1, 6]: 25.8% | inhibition in vivo at 50 mg/kg [1, 9]: 38.3% | inhibition in vivo at 50 mg/kg [1, 12]: 38.3% | inhibition in vivo at 100 mg/kg [1, 13]: 39.8% | inhibition in vivo at 300 mg/kg ([1]; Rattus norvegicus, po, 1 h, Table 12, 300 mg/kg p.o.): 100% | Ulcer index (mean ± S.E.) [1, 14]: 7.37 ± 0.54 mm | Ulcer index (mean ± S.E.) [1, 15]: 6.13 ± 0.91 mm | Ulcer index (mean ± S.E.) [1, 16]: 5.98 ± 1.04 mm | Ulcer index (mean ± S.E.) ([1]; Table 12, 300 mg/kg p.o., control 9.93 ± 0.91): 0.00 ± 0.00 mm
